Results: the Bradley open melting point set (2014)
Values joined by “and” are separate entries in the source; they are usually repeats but may differ in a detail not shown here. Identical values can stand only once.

melting point | SMILES
81 °C | C/C=C/C1Nn2c(nnc2-c2ccc(OC)cc2)S1 (configuration not stated)
125 °C | C/C=C/C1Nn2c(nnc2-c2ccccc2OC)S1 (configuration not stated)
94 °C | CC(C)CCOC(=O)/C=C/c1ccc(/C=C/C(=O)OCCC(C)C)c([N+](=O)[O-])c1
152 °C | CC12CCC(C1(C)C)C(C/C=C\c1ccccc1)(C1(C/C=C/c3ccccc3)C(=O)C3(C)CCC1C3(C)C)C2=O (configuration not stated)
80 °C | CCCCOc1ccc(-c2nnc3sc(/C=C/c4ccccc4)nn23)cc1
170 °C | COc1cc2nnc(/C=C/C(C)=O)c(-c3ccc(C)o3)c2cc1OC
133 °C | N#C/C(=C\c1ccc(Cl)cc1Cl)c1nc(-c2cccc3ccccc23)cs1
165 °C | O=C(/C=C/c1ccc(-c2ccc(Br)cc2)o1)c1ccco1
101 °C | CCOC(=O)C(C=Cc1cccc(C=CC(C(=O)OCC)C(=O)OCC)c1)C(=O)OCC
121 °C | O=C1/C(=C\c2ccco2)SC(=S)N1CN1CCCCC1
151 °C | O=C1/C(=N/Nc2cccc([N+](=O)[O-])c2)C(C(F)(F)F)=NN1c1ccccc1
259 °C | O=C(O)C1=NN(c2ccccc2)C(=O)C1=CC1C(=O)N(c2ccccc2)N=C1C(=O)O (configuration not stated)
105 °C | CC(CCc1oc2ccccc2c1-c1ccc(C)o1)=NO
132 °C | O=C(O)CC(O)C(=O)O (racemic) [dl-malic acid]
8 °C | C[C@@H]1CCCC[C@@H]1O (relative stereo) [cis-2-methylcyclohexanol]
169 °C | O=C(O)C(O)[C@H](O)C(=O)O (stereo in doubt) [D-tartaric acid]
146 °C | Cc1cc(C)c(CSCc2c(C)cc(C)cc2C)c(C)c1 [1,1'-(sulfanediyldimethanediyl)bis(2,4,6-trimethylbenzene)]
88 °C | O=[N+]([O-])c1cccc(C=Cc2cccc([N+](=O)[O-])c2)c1 [1,1'-[1,2-Ethenediyl]bis[3-nitrobenzene]]
-29 °C | BrCC(Br)Br [1,1,2-tribromoethane]
-67 °C | C[SiH](C)O[Si](C)(C)O[SiH](C)C [1,1,3,3,5,5-hexamethyltrisiloxane]
-78 °C | C[SiH](C)O[SiH](C)C [1,1,3,3-tetramethyldisiloxane]
-63 °C | CC(Br)Br [1,1-dibromoethane]
-25 °C | CCCC(c1ccccc1)c1ccccc1 [1,1-diphenylbutane]
11 °C | BrCC(Br)(Br)CBr [1,2,2,3-tetrabromopropane]
121 °C | OC1CC2=C(CCCC2)CC1O (configuration not stated) [1,2,3,4,5,6,7,8-octahydronaphthalene-2,3-diol]

melting point | SMILES
118 °C | C1=CC2=NC3=C(CCCC3)C2=CC1 [1,2,3,4-TETRAHYDROCARBAZOLE]
119 °C | c1ccc2c3c([nH]c2c1)CCCC3 [1,2,3,4-tetrahydrocarbazole]
-25 °C | Cc1cccc(C)c1C [1,2,3-Trimethylbenzene]
85 °C | O=Cc1csnn1 [1,2,3-thiadiazole-4-carboxaldehyde]
228 °C | O=C(O)c1csnn1 [1,2,3-thiadiazole-4-carboxylic acid]
134 °C | Oc1cccc(O)c1O [1,2,3-trihydroxybenzene]
-25 °C | Cc1cccc(C)c1C [1,2,3-trimethylbenzene]
182 °C | Brc1cc(Br)c(Br)cc1Br [1,2,4,5-Tetrabromobenzene]
80 °C | Cc1cc(C)c(C)cc1C [1,2,4,5-tetramethylbenzene]
-43.8 °C | Cc1ccc(C)c(C)c1 [1,2,4-Trimethylbenzene]
167 °C | O=C(O)c1ccc2c(c1)C(=O)OC2=O [1,2,4-benzenetricarboxylic anhydride]
266 °C | c1ccc2c(c1)ccc1cc3c(ccc4ccccc43)cc12 [1,2,5,6-Dibenzanthracene dibenz[a,h]anthracene]
105 °C | Oc1ccccc1O [1,2-Dihydroxybenzene]
-58 °C | COCCOC [1,2-Dimethoxyethane]
32 °C | O=S1(=O)CCCO1 [1,2-Oxathiolane 2,2-dioxide]
64 °C | OCc1ccccc1CO [1,2-benzenedimethanol]
-130 °C and -129 °C | CCC1CO1 (configuration not stated) [1,2-butene oxide]
-34 °C | Fc1ccccc1F [1,2-difluorobenzene]
-69 °C | COCCOC [1,2-dimethoxyethane]
-58 °C | COCCOC [1,2-dimethyloxyethane]
95 °C | c1ccc(OCCOc2ccccc2)cc1 [1,2-diphenoxyethane]
-41 °C | SCCS [1,2-ethanedithiol]
31 °C | CCCCCCC(O)CO (configuration not stated) [1,2-octanediol]
71 °C | CC(C)(C)c1cc(C(C)(C)C)cc(C(C)(C)C)c1 [1,3,5-tri-tert-butylbenzene]
36 °C | Cc1cc(C)n(C)n1 [1,3,5-trimethyl-1h-pyrazole]

melting point | SMILES
61 °C | C1OCOCO1 [1,3,5-trioxane]
237 °C | Cn1c(=O)c2c(ncn2C)n(C)c1=O [1,3,7-Trimethyl-3,7-dihydro-1H-purine-2,6-dione]
2 °C | c1ccc2scnc2c1 [1,3-Benzothiazole]
75 °C | O=C(CO)CO [1,3-Dihydroxyacetone]
20 °C | O=C=N/c1cccc(N=C=O)c1C [1,3-Diisocyanato-2-methylbenzene]
77 °C | O=C(CC(=O)c1ccccc1)c1ccccc1 [1,3-Diphenylpropane-1,3-dione]
266 °C | Cc1ccc(NC(=O)Nc2ccc(C)cc2)cc1 [1,3-bis(4-tolyl)urea]
121 °C | Cn1ccc(=O)n(C)c1=O [1,3-dimethyluracil]
130 °C | O=C1CC(=O)c2ccccc21 [1,3-indanedione]
-26 °C | OCCCO [1,3-propanediol]
130 °C | C1CSCCSCCNCCSCCSCCN1 [1,4,10,13-tetrathia-7,16-diazacyclooctadecane]
83 °C | O=C1Cc2ccccc2CO1 [1,4-Dihydro-3H-isochromen-3-on]
58 °C | COc1ccc(OC)cc1 [1,4-Dimethoxybenzene]
50 °C | O=Cc1ccc2c(c1)OCCO2 [1,4-benzodioxane-6-carboxaldehyde]
89 °C | c1ccc(CCc2ccc(CCc3ccccc3)cc2)cc1 [1,4-bis(2-phenylethyl)benzene]
234 °C | Cc1nc(-c2ccc(-c3nc(C)c(-c4ccccc4)o3)cc2)oc1-c1ccccc1 [1,4-bis(4-methyl-5-phenyloxazol-2-yl)benzene]
55 °C | O=C(CCCc1ccccc1)c1ccccc1 [1,4-diphenyl-1-butanone]
-40 °C | BrCCCCCBr [1,5-dibromopentane]
-55 °C | O=C=NCCCCCCN=C=O [1,6-Diisocyanatohexane]
177 °C | CC12CCC(CC1=O)C2(C)C (configuration not stated) [1,7,7-Trimethylbicyclo[2.2.1]heptan-2-one]
182 °C | Oc1ccc2cccc(O)c2c1 [1,7-dihydroxynaphthalene]
16 °C | BrCCCCCCCCBr [1,8-dibromooctane]
142 °C | O=C(/C=C/C=C/c1ccccc1)/C=C/C=C/c1ccccc1 [1,9-diphenyl-1,3,6,8-nonatetraen-5-one]

SMILES | melting point
Clc1ccc(C(c2ccc(Cl)cc2)C(Cl)(Cl)Cl)cc1 [1,1'-(2,2,2-Trichloroethane-1,1-diyl)bis(4-chlorobenzene)] | 108 °C
C1CCC(C2CCCCC2)CC1 [1,1'-Bi(cyclohexyl)] | 4 °C
CC(Cl)(Cl)Cl [1,1,1-trichloroethane] | -30 °C
ClCC(Cl)Cl [1,1,2-Trichloroethane] | -35 °C
ClC1C(Cl)C(Cl)C(Cl)C(Cl)C1Cl (configuration not stated) [1,2,3,4,5,6-Hexachlorocyclohexane] | 113 °C
Clc1cccc(Cl)c1Cl [1,2,3-trichlorobenzene] | 55 °C and 53 °C (2×)
Clc1cc(Cl)c(Cl)cc1Cl [1,2,4,5-Tetrachlorobenzene] | 139 °C
Clc1cc(Cl)c(Cl)cc1Cl [1,2,4,5-tetrachlorobenzene] | 140 °C
CCCCCCCCCCc1ccc(N(NC(=O)OC(C)(C)C)C(=O)OC(C)(C)C)cc1CCCCCCCCCC [1,2-Bis(tert-butoxycarbonyl)-1-(3,4-didecylphenyl)hydrazine] | 37.5 °C
Cc1ccc([N+](=O)[O-])cc1C [1,2-Dimethyl-4-nitrobenzene] | 30.5 °C
CC(Br)CBr (configuration not stated) [1,2-dibromopropane] [listing 1 of 2 here] | -55 °C
CC(Br)CBr (configuration not stated) [1,2-dibromopropane] [listing 2 of 2 here] | -55 °C
O=[N+]([O-])c1cccc(Cl)c1Cl [1,2-dichloro-3-nitrobenzene] | 62 °C
N#CCc1ccccc1CC#N [1,2-phenylenediacetonitrile] | 59 °C
Brc1cc(Br)cc(Br)c1 [1,3,5-Tribromobenzene] | 122 °C
Clc1cccc(Cl)c1 [1,3-Dichlorobenzene] | -24.8 °C
Clc1cccc(Cl)c1 [1,3-dichlorobenzene] | -25 °C
OCCCCO [1,4-Butanediol] | 20.1 °C
Brc1ccc(Br)cc1 [1,4-Dibromobenzene] | 88 °C
Clc1ccc(Cl)cc1 [1,4-Dichlorobenzene] | 55 °C
BrC(Br)c1ccc(C(Br)Br)cc1 [1,4-bis(dibromomethyl)benzene] | 168 °C
OCCCCO [1,4-butanediol] | 20 °C
Brc1ccc(Br)cc1 [1,4-dibromobenzene] | 87.3 °C and 87 °C and 88 °C
ClCCCCCl [1,4-dichlorobutane] | -38 °C
O=C1C=CC(=O)c2ccccc21 [1,4-naphthoquinone] | 122 °C
ClCCCCCCl [1,5-dichloropentane] | -72 °C
O=[N+]([O-])c1cc([N+](=O)[O-])c(F)cc1F [1,5-difluoro-2,4-dinitrobenzene] | 74 °C
BrCCCCCCBr [1,6-dibromohexane] | -2 °C
N#CCCCCCCC#N [1,6-dicyanohexane] | -3 °C
